Data published in the NIST ThermoML archive (doi:10.1016/j.jct.2018.01.024).

Experiment: mn = molality of the nth substance listed, in mol/kg
Conditions: 101 kPa, Liquid, Vibrating tube method

NC(N)=O [urea] + O
mass density [kg/m3]
Conditions	274.15 K	275.15 K	276.15 K	277.15 K	278.15 K
m1 = 0.093	1001.57	1001.6	1001.61	1001.61	1001.59
m1 = 0.1063	1001.81	1001.84	1001.85	1001.85	1001.82
m1 = 0.141	1002.43	1002.45	1002.46	1002.45	1002.42
m1 = 0.152	1002.62	1002.64	1002.65	1002.64	1002.61
m1 = 0.1809	1003.14	1003.16	1003.16	1003.15	1003.12
m1 = 0.2423	1004.22	1004.23	1004.22	1004.2	1004.17
m1 = 0.4362	1007.6	1007.59	1007.56	1007.52	1007.46
m1 = 0.5644	1009.79	1009.77	1009.73	1009.67	1009.6
m1 = 1.008	1017.11	1017.04	1016.96	1016.85	1016.74
m1 = 1.609	1026.44	1026.31	1026.17	1026.02	1025.85
m1 = 2.505	1039.26	1039.07	1038.86	1038.66	1038.42
m1 = 3.376	–	–	–	–	1049.57
